Laboratory results reported in US20210236523A1, “P[…] FOR HEADACHE DISORDERS” (priority 2020, published 2021).

How the values were obtained:
[1] = test system: patients with migraine headache; assay: Placebo-controlled cross-over study of a single low oral dose of psilocybin in migraine headache: headache diary burden; assay type: in vivo, human
Source text: The purpose of this exploratory study was to investigate the effects of a single low dose of psilocybin in patients with migraine headache in a controlled experiment. Basic information was gathered to assist in the development of future studies considering the effects and mechanism of action of 5-HT2A receptor compounds in migraine and other headache disorders.
This study was registered on clinicaltrials.gov (NCT03341689) with approvals from the Human Studies Subcommittee of Veterans Affairs Connecticut Healthcare System (VACHS) and the Human Investigations Committee of Yale University School of Medicine. The study was conducted under an approved Investigational New Drug application (#124,874) with the US Food & Drug Administration, under a Schedule 1 license (author DCD). Psilocybin was provided by author NC from the University of Wisconsin. Weight-based capsules of psilocybin 0.143 mg/kg and matching placebo [microcrystalline cellulose; obtained from Fagron (St. Paul, Minn.)] were compounded into identical blue gel capsules by the VACHS Investigational Research Pharmacy for each subject.
Adults (age 21 to 65 years, inclusive) free from serious medical or psychiatric disease with migraine headache as defined by the International Classification of Headache Disorders III-beta and with a frequency of migraine attacks of 2 per week or more were eligible to participate in this study. Among the excluded medical conditions were uncontrolled hypertension, coronary artery disease, cardiac arrhythmia, cerebrovascular disease, and serious central or peripheral nervous system or spinal disease (e.g., multiple sclerosis, amyotrophic lateral sclerosis). Psychotic or manic disorders in the subject or a first degree relative was also excluded, as were substance abuse within the past 3 months and any prior serious adverse event with psilocybin, LSD, or related compounds (i.e., mescaline). Prior exposure to psilocybin or related compounds through recreational or medicinal use or through participation in other research studies was not excluded, although any use in the past 3 months was prohibited. Alcohol use within one week of the first experimental test day was prohibited. Caffeine and nicotine were not restricted. Subjects were required to be free from serotonergic antidepressants (selective serotonin reuptake inhibitors, serotonin and norepinephrine reuptake inhibitors, monoamine oxidase inhibitors, tricyclics) for at least 6 weeks, serotonergic antiemetics (i.e., ondansetron) for at least 2 weeks, and vasoconstrictive medications (i.e., pseudoephedrine) for at least 5 half-lives of said medication. Triptans were permitted, but no more than twice weekly and not within 5 half-lives of said triptan before each test day and not within 5 half-lives of psilocybin (15 hours) after each test day.
Subjects were instructed to maintain a headache diary starting two weeks before the first experimental session until two weeks after the second experimental session. Subjects documented every headache attack, migraine (with associated migrainous symptoms) or otherwise (without associated migrainous symptoms; not counted as a migraine attack). Associated symptoms—photophobia (light sensitivity), phonophobia (sound sensitivity), nausea/vomiting—as well as attack-related functional impairment were documented using a 0-3 visual analog scale (VAS): 0=none, 1=mild, 2-moderate, 3=severe. The abortive medications taken and their effects were also recorded in the diary. Only the 14 days prior to the first experimental session (baseline) and the 14 days after each experimental session (inclusive) were counted in the final analysis.
Subjects completed two experimental sessions, separated by at least 14 days, which were conducted in the Neurobiological Studies Unit (NSU) at VACHS. Subjects reported to the NSU at 08:00; urine drug, urine pregnancy (when applicable), and alcohol breathalyzer tests were required to be negative in order to proceed. […]

[2] = test system: patients with cluster headache; assay: Cluster headache study: tolerability and adverse events; assay type: in vivo, human
Experimental: Sessions were conducted in the Neurobiological Studies Unit (NSU) at VACHS. Subjects reported to the NSU at 08:00; urine drug, urine pregnancy (when applicable), and alcohol breathalyzer tests were required to be negative in order to proceed. After a standard light breakfast, an intravenous line was placed and baseline measures were collected. Subjects typically received the drug capsule between 08:30 and 09:30. Blood pressure, heart rate, and peripheral oxygenation were measured at baseline and throughout experimental sessions. Drug effects (overall, anxiety/fear, sleepiness/sedation, nausea, joy/intense happiness, peace/harmony) were self-reported on a 0-3 scale (0=none, 1=minimal, 2=moderate, 3=definite) at baseline and throughout experimental sessions. Psychedelic effects were self-reported at the end of experimental sessions using the validated 5-Dimensional Altered States of Consciousness (5D-ASC) scale. Subjects were discharged from the NSU at 6 hours after capsule ingestion or once physiological and psychological drug effects had resolved. Subjects were not allowed to drive themselves after experimental sessions. Emergency contacts, including 24-hour/7-day psychiatry services, were provided to all subjects.
Telephone follow-up was performed the day after each experimental session and weekly for two weeks and at 2, 3, and 6 months after the last experimental session.

[3] = of 10 subjects, 14 days after single oral dose 0.143 mg/kg
[4] = single oral dose 0.143 mg/kg, two weeks after dosing

**Q.** What does the source list for `CN(C)CCc1c[nH]c2cccc(OP(=O)(O)O)c12` [psilocybin, 3-(2-dimethylaminoethyl)-1H-indol-4-yl] dihydrogen phosphate]?
**A.** change from baseline in attack-related functional impairment ([1]; 0-3 VAS, single oral dose 0.143 mg/kg, mean (SEM), P=0.0235 vs placebo): −0.96 (0.26); subjects with no migraine attacks after administration [1, 3]: 2 subjects; subjects with only one migraine attack after administration [1, 3]: 2 subjects; change in weekly migraine days (WMD) from baseline ([1]; single oral dose 0.143 mg/kg, 14 days after dosing, mean (SEM), 10 subjects, P=0.0027 vs placebo): −1.65 (0.39) days/week; time to the second migraine attack after drug administration ([1]; single oral dose 0.143 mg/kg, mean (SEM), 15 days used when no attack, P=0.0119 vs placebo): 10.30 (1.61) days; time to the first migraine attack after drug administration ([1]; single oral dose 0.143 mg/kg, mean (SEM), 15 days used when no attack, P=0.0554 vs placebo): 6.30 (1.88) days; change from baseline in weekly migraine attacks (WMA) ([1]; single oral dose 0.143 mg/kg, mean (SEM), P=0.0039 vs placebo): −1.40 (0.36) attacks/week; change from baseline in pain severity ([1]; single oral dose 0.143 mg/kg, mean (SEM), P=0.0109 vs placebo): −0.70 (0.16); change from baseline in weekly migraine abortive use ([1]; single oral dose 0.143 mg/kg, mean (SEM), P=0.0140 vs placebo): −0.65 (0.21) abortives/week; percentage of subjects who had 25% reduction in WMD [1, 4]: 80%; percentage of subjects who had 50% reduction in WMD [1, 4]: 50%; percentage of subjects who had 75% reduction in WMD [1, 4]: 30%; serious or unexpected adverse events ([2]; cluster headache study, 3-dose pulse 0.143 mg/kg): no serious or unexpected adverse events; lasting physical or psychological changes ([2]; follow-up in the 6 months after study participation): no lasting physical or psychological changes; most commonly reported adverse events during acute exposure ([2]; self-limiting): nausea and anxiety
